Experimental data reported in paper PMC11125453, “A Novel 2-Methoxyestradiol Derivative: Disrupting Mitosis Inhibiting Cell Motility and Inducing Apoptosis in HeLa Cells In Vitro” (Pharmaceutics, 2024).

Tests used:
[1] = system: NIH/3T3 cells; assay: Growth inhibition on non-cancerous mouse fibroblast cells, previous study; assay type: cell-based; details: ratio of IC50 values of NIH/3T3 and HeLa
[2] = system: T47D cells; assay: MTT assay, growth inhibition of T47D, 72 h; assay type: cell-based; details: Homo sapiens, 72 h incubation
Procedure: The extent of the inhibition of cell proliferation by the test compound was determined using the MTT (3-(4,5-dimethylthiazol-2-yl)-2,5-diphenyltetrazolium bromide) assay. Exponentially growing HeLa cells were seeded into 96-well plates at a density of 1.0 × 10^4 cells per well in 100 µL of media and incubated for 24 h to facilitate cell attachment. Subsequently, the cells were treated with test compounds formulated in 100 µL of media at six different concentrations of compounds ranging, from 0.1 to 30 µmol. The control group received only media treatment. After 24 h of incubation, 22 µL of MTT solution (5 mg/mL in PBS; Duchefa Biochemie BV, Haarlem, The Netherlands) was added and incubated for 4 h at 37 °C in a humidified 5% CO2 environment. […] Absorbance measurements were taken at 545 nm using a microplate UV-VIS reader (SPECTRO star Nano, BMG Labtech GmbH, Offenburg, Germany), followed by the calculation of the percentage cell viability using the GraphPad Prism 5.01 (GraphPad Software, San Diego, CA, USA). […]
The MTT assay was conducted as described in Section 2.5, with the incubation time extended to 72 h. IC50 values were determined by fitting sigmoidal concentration–response curves using GraphPad Prism 9.5.1 (GraphPad Software, San Diego, CA, USA). […]

[3] = system: MCF7 cells; assay: MTT assay, growth inhibition of MCF7, 72 h; assay type: cell-based; details: Homo sapiens, 72 h incubation
[4] = target: T1, ERα (Homo sapiens, UniProt P03372); assay: Estrogenic activity luciferase reporter assay in T47D-ERE-Luc^Neo; assay type: cell-based; details: 24 h incubation, read-out: EC50, oestrogenic activity (transcriptional activity of oestrogen-responsive luciferase reporter)
T1 construct: T47D-ERE-Luc^Neo, an ERα-positive cell line, stably transfected with a luciferase reporter cassette; endogenous in cells; host or cells: T47D-ERE-Luc^Neo
T1 sequence (P03372 1-595): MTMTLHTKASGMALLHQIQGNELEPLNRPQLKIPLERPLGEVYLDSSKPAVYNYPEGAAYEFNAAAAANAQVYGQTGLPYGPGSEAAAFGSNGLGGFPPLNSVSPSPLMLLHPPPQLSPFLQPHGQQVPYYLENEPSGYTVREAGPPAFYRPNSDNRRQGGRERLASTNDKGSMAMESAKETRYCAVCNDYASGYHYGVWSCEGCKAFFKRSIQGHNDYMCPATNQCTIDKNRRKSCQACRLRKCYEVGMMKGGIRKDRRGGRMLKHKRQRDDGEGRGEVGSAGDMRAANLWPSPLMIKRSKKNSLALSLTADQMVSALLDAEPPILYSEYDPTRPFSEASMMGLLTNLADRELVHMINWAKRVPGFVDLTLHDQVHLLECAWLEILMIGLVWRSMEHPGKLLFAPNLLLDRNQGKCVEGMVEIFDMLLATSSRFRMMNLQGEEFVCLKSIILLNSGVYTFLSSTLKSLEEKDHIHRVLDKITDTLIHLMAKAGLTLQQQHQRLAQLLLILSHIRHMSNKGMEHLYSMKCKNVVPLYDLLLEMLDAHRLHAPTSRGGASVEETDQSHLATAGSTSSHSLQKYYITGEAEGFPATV
Procedure: The in vitro oestrogenic activity of our test compound was determined by utilizing the T47D-ERE-Luc^Neo, an ERα-positive cell line, stably transfected with a luciferase reporter cassette. On the first day of the experiment, cells were seeded onto 96-well microplates in a density of 50,000 cells/well. After 72 h of incubation, the medium was changed to phenol red-free RPMI, containing 10% charcoal-stripped FBS. This step was repeated for another four consecutive days to deplete the intracellular oestrogen content. […]. After 24 h of incubation, the supernatant was removed from the wells and the One-Glo™ firefly luciferase reagent was added according to the manufacturer’s instructions (Promega Corp., Madison, WI, USA). Following a 5 min incubation period, the luciferase enzyme activity was measured using a luminometer (FLUOstar OPTIMA, BMG Labtech GmbH, Ortenberg, Germany). Each concentration was assayed in triplicates, repeated twice. Relative luminescence units (RLU) were normalised to percentage values, and sigmoidal concentration–response curves were fitted to the data points using GraphPad Prism 9.5.1 (GraphPad Software, San Diego, CA, USA).

[5] = system: HeLa cells; assay: Wound-healing assay; assay type: cell-based, human; details: 5.0 µM
Procedure: Due to the significant contribution of cell motility to tumour metastasis, we performed a wound-healing assay, utilizing a 2D model, to explore the antimigratory potential of compound 4a on HeLa cells. Special silicon inserts (Ibidi GmbH, Gräfelfing, Germany) were utilised, with 50,000 cells per well implanted on 12-well plates in a standard EMEM medium supplemented with 10% FBS. Following overnight incubation, the inserts were carefully removed, and the confluent monolayers were washed with PBS. Cells were then treated with sub-antiproliferative concentrations (1.0, 2.5 and 5.0 µM) of compound 4a in the EMEM medium containing 2% FBS. Images were then captured at 0, 24, and 48 h post-treatment using a Nikon Eclipse TS100 fluorescence microscope (Nikon Instruments Europe, Amstelveen, The Netherlands). Untreated cells served as the control, and the rate of wound closure (the decrease in size of the gaps devoid of cells) was measured using ImageJ software v1.54 (National Institutes of Health, Bethesda, MD, USA).

[6] = system: HeLa cells; assay: Boyden chamber invasion assay; assay type: cell-based, human; details: 5.0 µM, 24 h
Procedure: Compound 4a’s capacity to inhibit tumour invasion was assessed using the Boyden chamber assay, a three-dimensional model, on a profoundly invasive HPV-18 positive cell line. The polyethylene terephthalate (PET) membrane (8 μm pore size) and the thin layer of the matrigel basement matrix in special Boyden chamber inserts (BioCoat™ Matrigel® Invasion Chambers, Corning Inc., Corning, NY, USA) were prehydrated (2 h, serum-free EMEM) and placed onto a 24-well plate. The cell suspension (50,000 cells/insert in 500 μL) prepared in the serum-free EMEM with sub-antiproliferative concentrations (1.0, 2.5, and 5.0 μM) of 4a was nested in the upper compartments. Untreated cells were used as controls, with the EMEM medium supplemented with 10% FBS, and served as a chemoattractant in the lower chambers. After 24 h of incubation, supernatants and non-invading cells were removed cautiously with a cotton swab. […] Subsequently, 4 images per chamber were taken with a Nikon Eclipse TS100 fluorescence microscope (Nikon Instruments Europe, Amstelveen, The Netherlands), and the number of invading cells were enumerated using ImageJ software (National Institutes of Health, Bethesda, MD, USA). The invasion rate was determined by comparing the number of invaded cells in the treated samples with the number of invaded cells in the untreated control samples.

[7] = system: tubulin; assay: Cell-free tubulin polymerisation assay; assay type: biochemical
Procedure: To assess the impact of test compound 4a on the microtubular system, a cell-free tubulin polymerisation assay was conducted using a commercially available kit (Cytoskeleton Inc., Denver, CO, USA), largely in accordance with manufacturer’s instructions, though with some modifications. The assay was performed in a pre-heated 96-well plate, with each condition tested in two parallel wells. Two wells were assigned as the experimental control and received 10 µL of general tubulin buffer (GTB), while the next two wells were assigned as the positive control and received a similar volume of 10 µM paclitaxel. Various concentrations of the test compound (50, 150, 300, and 600 µM) were added in similar volumes, and the polymerisation reaction was initiated by adding 100 µL of tubulin to each well. Absorbance readings were measured every minute for 60 min at 340 nm, following a kinetic measurement protocol. A similar experiment was repeated with the absence of glycerol in the reaction mixture and in exclusion of 50, 150 µM of our test compound. […] The maximum rate of tubulin polymerisation (Vmax) was determined as the highest difference between a set of three absorbance values at any two consecutive intervals.

[8] = system: HeLa cells; assay: Cell cycle analysis using flow cytometry; assay type: cell-based, human; details: 18 h incubation; 1.25, 2.5, 5.0 and 10 µM
Procedure: Cell cycle analysis was performed to elucidate a possible mechanism of action of the compound 4a. Cells were seeded in a 12-well plate at a density of 120,000 cells per well and incubated overnight. […] The supernatant from each treatment was collected separately, and the cells were washed with PBS and detached using trypsin. The resulting supernatant containing the cells was centrifuged at 1300 rpm for 5 min. The cells were then washed with PBS and fixed with 70% ice-cold ethanol at −20 °C for 20 min. To stain the DNA content, the cells were treated with 300 µL of staining solution, which consisted of 10 µg/mL PI, 0.1% sodium citrate, 0.1% triton-X, and 10 µg/mL RNase-A, all dissolved in injectable water. The staining process was carried out in the dark for 30 min. The cells were subjected to analysis using a flow cytometer (CytoFLEX-V0-B4-RO, Beckman Coulter, Brea, CA, USA) with a minimum of 10,000 events per sample being evaluated during each analysis. The data obtained were processed using ModFit LT 3.3.11 software (Verity Software House, Topsham, ME, USA). Untreated cells were utilised as the control group. Apoptotic cells were identified as the hypodiploid (subG1) cell population. The cell cycle analysis experiments were conducted twice, with three parallel samples for each condition.

[9] = system: HeLa cells; assay: MTT assay for cell viability, 24 h; assay type: cell-based, human; details: concentrations corresponding the IC50 of 4a
Procedure: The extent of the inhibition of cell proliferation by the test compound was determined using the MTT (3-(4,5-dimethylthiazol-2-yl)-2,5-diphenyltetrazolium bromide) assay. Exponentially growing HeLa cells were seeded into 96-well plates at a density of 1.0 × 10^4 cells per well in 100 µL of media and incubated for 24 h to facilitate cell attachment. Subsequently, the cells were treated with test compounds formulated in 100 µL of media at six different concentrations of compounds ranging, from 0.1 to 30 µmol. The control group received only media treatment. After 24 h of incubation, 22 µL of MTT solution (5 mg/mL in PBS; Duchefa Biochemie BV, Haarlem, The Netherlands) was added and incubated for 4 h at 37 °C in a humidified 5% CO2 environment. The medium was subsequently aspirated, and 100 µL of DMSO was added to dissolve the formazan crystals produced by the intact cell’s mitochondrial enzymes. The mixture was then mechanically shaken for 30 min. Absorbance measurements were taken at 545 nm using a microplate UV-VIS reader (SPECTRO star Nano, BMG Labtech GmbH, Offenburg, Germany), followed by the calculation of the percentage cell viability using the GraphPad Prism 5.01 (GraphPad Software, San Diego, CA, USA). All in vitro experiments were performed twice with five replicates. Stock solutions of the tested substances (10 mM) were prepared in DMSO.

[10] = system: HeLa cells; assay: Hoechst 33258-propidium iodide fluorescent double staining; assay type: cell-based, human; details: 1.0, 2.5, 5.0 and 10 μM, 48 h
Procedure: Fluorescence staining was conducted to observe the morphological changes induced by the apoptotic process in cells treated with the compound 4a. HeLa cell suspension was seeded into 6-well plates at a density of 150,000 cells per well and allowed to repose for 24 h before exposure to different concentrations of our test substance (1.0, 2.5, 5.0, and 10 μM) for 48 h. To distinguish apoptotic and necrotic cell populations, the cells were stained with lipophilic Hoechst 33258 (1 μg/mL, HO) and hydrophilic propidium iodide (3 μg/mL, PI) for 90 min at 37 °C in a CO2 incubator. Following the removal of the remaining dye-containing medium, a Nikon Eclipse TS100 fluorescence microscope (Nikon Instruments Europe, Amstelveen, The Netherlands) was used to capture at least 4 images per condition. The microscope was equipped with suitable optical blocks for Hoechst 33258 (excitation: 360/40 nm bandpass filter, emission: 460/50 nm bandpass filter, and 400 nm dichromatic mirror) and propidium iodide (excitation: 500/20 nm bandpass filter, emission: 520 nm long pass filter, and 515 nm dichromatic mirror). This technique enables differentiation between early apoptosis and secondary necrosis by examining the nuclear morphology and membrane integrity of cells. The HO dye solution readily permeates into the nuclei of all cells, resulting in a uniform blue staining in the nuclei of the viable cells. […]

[11] = system: HeLa cells; parameters: method as in PMID 35091086; details: HeLa cell line; cited from earlier work
[12] = system: NIH/3T3 cells; parameters: method as in PMID 35091086; details: read-out: IC50 on non-cancerous mouse fibroblast (NIH/3T3) cells; cited from earlier work

CN(C)Cc1cc2c(cc1O)CC[C@@H]1[C@@H]2CC[C@]2(C)[C@@H](O)CC[C@@H]12 [Compound 4a, 2-[(dimethylamino)methyl]-oestradiol]
selectivity index (SI) [1]: 15.6
IC50 [2]: 16.9 µM
IC50 [3]: 19.2 µM
EC50 [4]: 0.653 µM
reduction in the migratory capacity of HeLa cells relative to the control ([5]; 24 h of treatment): 53.9%
reduction in the migratory capacity of HeLa cells relative to the control ([5]; 48 h of treatment): 39.6%
decrease in number of invading cells (anti-invasive activity) vs control [6]: more than 95%
concentration of maximum tubulin polymerisation effect ([7]; absence of glycerol): approximately 300 µM
effect on tubulin polymerisation relative to the control ([7]; all tested concentrations (50, 150, 300, 600 µM), presence or absence of glycerol): significant increase in tubulin polymerisation
effect on G2/M phase population [8]: significant cell arrest at the G2/M phase
effect on hypodiploid sub-G1 population [8]: significant rise in the hypodiploid sub-G1 population
cell viability change after 24 h incubation [9]: no significant alteration in cell viability
nuclei emitting intense blue fluorescence (DNA condensation, early apoptosis) [10]: concentration-dependent escalation
IC50 [11]: 4.53 µM
IC50 [12]: 70.4 µM

COc1cc2c(cc1O)CC[C@@H]1[C@@H]2CC[C@]2(C)[C@@H](O)CC[C@@H]12 [Compound 2ME, 2-methoxyestradiol]
EC50 [4]: 0.0111 µM
